Data from patent publication US10478430B2, “Compounds useful as inhibitors of ATR kinase and combination therapies thereof” (Vertex Pharmaceuticals Incorporated, priority 2012, dated 2019).
Entries after “also recorded” stand apart in the source; their conditions may differ.

Experiments:
Format in all cases: cell-based
[1] = tested on: H23 non-small cell lung cancer cells; test: MTS cell density assay, synergy of VE-822 with Rucaparib (MacSynergy II); settings: VE-822 + Rucaparib, 96 h, 95% confidence interval
Experimental: (§1) H23 non-small cell lung cancer (a), U2OS osteosarcoma (b), HCT116 colorectal cancer (c), MCF7 breast cancer (d), HT144 melanoma (e), HT29 colorectal cancer (f), and PSN1 pancreatic cancer (g) cells were treated in triplicate with the indicated concentrations of VE-822 and Rucaparib for 96h. Cell density was measured by 3-(4,5-dimethylthiazol-2-yl)-5-(3-carboxymethoxyphenyl)-2-(4-sulfophenyl)-2H-tetrazolium (MTS) assay, and synergy was analyzed at the 95% confidence interval with MacSynergy II software. A range of synergy was observed from strong (a) to negligible (g).
(§2) H23 non-small cell lung cancer (a) and HFL1 normal lung (b) cells were treated in triplicate with the indicated concentrations of VE-822 and Rucaparib for 96h. Cell density was measured by 3-(4,5-dimethylthiazol-2-yl)-5-(3-carboxymethoxyphenyl)-2-(4-sulfophenyl)-2H-tetrazolium (MTS) assay, and synergy was analyzed at the 95% confidence interval with MacSynergy II software.
FIG. 4. […] The synergy plots can be analyzed using methods described in Reaper et al, “Selective Killing of ATM- or p53-deficient cancer cells through inhibition of ATR”, Nat. […]
FIG. 5. […] The synergy plots can be analyzed using methods described in Reaper et al, “Selective Killing of ATM- or p53-deficient cancer cells through inhibition of ATR”, Nat. […]

[2] = tested on: PSN1 pancreatic cancer cells; test: as above; settings: VE-822 + Rucaparib, 96 h, 95% confidence interval
Experimental: as §1
(§3) FIG. 4. H23 non-small cell lung cancer (a), U2OS osteosarcoma (b), HCT116 colorectal cancer (c), MCF7 breast cancer (d), HT144 melanoma (e), HT29 colorectal cancer (f) and PSN1 pancreatic cancer (g) cells were treated in triplicate with the indicated concentrations of VE-822 and Rucaparib for 96 h, cell density was measured by 3-(4,5-dimethylthiazol-2-yl)-5-(3-carboxymethoxyphenyl)-2-(4-sulfophenyl)-2H-tetrazolium (MTS) assay and synergy was analyzed at the 95% confidence interval with MacSynergy II software. A range of synergy was observed from strong (a) to negligible (g). The synergy plots can be analyzed using methods described in Reaper et al, “Selective Killing of ATM- or p53-deficient cancer cells through inhibition of ATR”, Nat. Chem. Bio. 2011, Apr. 13; 9 (7):428-430.

[3] = tested on: HFL1 normal lung cells; test: as above; settings: VE-822 + Rucaparib, 96 h, 95% confidence interval
Experimental: as §2
FIG. 5. H23 non-small cell lung cancer (a) and HFL1 normal lung (b) cells were treated in triplicate with the indicated concentrations of VE-822 and Rucaparib for 96 h, cell density was measured by 3-(4,5-dimethylthiazol-2-yl)-5-(3-carboxymethoxyphenyl)-2-(4-sulfophenyl)-2H-tetrazolium (MTS) assay and synergy was analyzed at the 95% confidence interval with MacSynergy II software. The synergy plots can be analyzed using methods described in Reaper et al, “Selective Killing of ATM- or p53-deficient cancer cells through inhibition of ATR”, Nat. Chem. Bio. 2011, Apr. 13; 9 (7):428-430.

[4] = tested on: H23, U2OS, HCT116, MCF7, HT144, HT29 and PSN1 cancer cells; test: MTS cell density assay, synergy of VE-822 with Rucaparib across a cancer cell line panel; settings: seven cancer cell lines, VE-822 + Rucaparib, 96 h, in vitro
Experimental: as §1, §3

[5] = tested on: H23 non-small cell lung cancer and HFL1 normal lung cells; test: MTS cell density assay, triple combination of VE-822, Rucaparib and ionizing radiation; settings: H23 versus HFL1 cells, with 2 Gy IR, 96 h, MacSynergy II modified for triple combination
Experimental: (§4) In FIG. 6A, H23 non-small cell lung cancer (a) and HFL1 normal lung (b) cells were treated in triplicate with the indicated concentrations of VE-822 and Rucaparib together with 2 gray (Gy) of IR. Cell density was measured after 96h by 3-(4,5-dimethylthiazol-2-yl)-5-(3-carboxymethoxyphenyl)-2-(4-sulfophenyl)-2H-tetrazolium (MTS) assay, and synergy was analyzed at the 95% confidence interval with MacSynergy II software modified for triple combination studies (Nguyen et al, PLOS One 5:9332). In FIG. 6B, H23 non-small cell lung cancer (a) and HFL1 normal lung (b) cells were treated in triplicate with the indicated concentrations of VE-822 and Rucaparib together with 80nM cisplatin. Cell density was measured after 96h by 3-(4,5-dimethylthiazol-2-yl)-5-(3-carboxymethoxyphenyl)-2-(4-sulfophenyl)-2H-tetrazolium (MTS) assay, and synergy was analyzed at the 95% confidence interval with MacSynergy II software modified for triple combination studies (Nguyen et al, PLOS One 5:9332).
FIG. 6a. […] The synergy plots can be analyzed using methods described in Reaper et al, “Selective Killing of ATM- or p53-deficient cancer cells through inhibition of ATR”, Nat. […]

[6] = tested on: H23 non-small cell lung cancer and HFL1 normal lung cells; test: MTS cell density assay, triple combination of VE-822, Rucaparib and cisplatin; settings: H23 versus HFL1 cells, with 80 nM cisplatin, 96 h, MacSynergy II modified for triple combination
Experimental: as §4
FIG. 6b. […] The synergy plots can be analyzed using methods described in Reaper et al, “Selective Killing of ATM- or p53-deficient cancer cells through inhibition of ATR”, Nat. […]

## CNCc1ccc(-c2cc(-c3nc(-c4ccc(S(=O)(=O)C(C)C)cc4)cnc3N)on2)cc1 [VE-822]
[1]
  synergy with the PARP inhibitor Rucaparib: strong; also recorded: synergizes with the PARP inhibitor Rucaparib in cancer
[2]
  synergy with the PARP inhibitor Rucaparib: negligible
[3]
  synergy with the PARP inhibitor Rucaparib: not normal cells
[4]
  synergy with the PARP inhibitor Rucaparib across cancer cell lines: synergizes with the PARP inhibitor Rucaparib in many (but not all) cancer cell lines
[5]
  synergy of the combination of VE-822, Rucaparib and ionizing radiation: cancer-selective synergistic effects
[6]
  synergy of the combination of VE-822, Rucaparib and cisplatin: cancer-selective synergistic effects
